Experimental data as given in PMC12851007 (Angewandte Chemie (International Ed. in English), 2025).
Where a SMILES comes first, the peptide text is derived from it.

Assay: Dual-channel assay, CX4/LCG channel, POPC vesicles
Format: in vitro ADME
Details: 175 mM glucose; for EC50: 12.5 µM POPC⸧CX4/LCG-LUVs and 12.5 µM POPC⸧CF-LUVs in 10 mM Hepes, pH 7.5, 25 °C, λexc 369/λem 475 nm, error = SD of fit, n = 1; for membrane activity in the CX4/LCG channel compared with the CF channel: dual-channel, seven independent POPC LUV batches (n = 7), penetratin 15 µM, Pep-1 10 µM, LRLLRW 30 µM, TP10 0.15 µM, 10 mM Hepes, pH 7.5, t-test/ANOVA p < 0.001, melittin: Figure S35 and Table S9
Source text: With the established identical extravesicular conditions in both assays, we further envisaged a simultaneous measurement of both assays within the same solution to enhance the comparability of the measurements. This became possible after optimization of the excitation and emission wavelengths. […] A further optimization was required, because the dye concentrations in the CF assay and the CX4/LCG assay are largely different.^[ [51], [52] ^] Consequently, simultaneous monitoring requires the detection of a low amount of LCG in the presence of a high concentration of the much more brightly fluorescent CF, which challenges the dynamic range of a typical fluorescence spectrometer in a dual‐channel measurement. To reduce the fluorescence read‐out of CF, the excitation wavelength was shifted from the absorption maximum at ca. 490 nm to 525 nm, where CF has a much lower absorbance, and the emission in the CF channel was shifted from its maximum at ca. 515 nm to 545 nm to further reduce the fluorescence of CF. To maintain a high LCG fluorescence, excitation was performed at the absorption maximum at 369 nm. Since CF has a residual absorbance at this excitation wavelength, emission in the LCG channel was monitored at 475 nm instead of 502 nm to eliminate spill‐over of CF fluorescence into the LCG channel. […]
Time-dep endent fluores cence intensit y traces, I (t), were subsequentl y normalized to fractional intensities, If(t), using equation (1) and the concentration- dependent fractional intensities just before the addition of th e calibration co cktail, I f, w ere then normaliz ed to fr actional membran e activities, Y, using equation (2). The fractional membrane activities, Y, were subsequently plotted against the peptide concentration, c, and anal ysed using the Hill equation (3) to obtain the effective molar concentration, EC 50, and the Hill coefficient, n. For peptides with too low activity to determine Y max ex perimentall y, Y max was fixed at 1.0 during fitting. […]
Dual-Channel Measurements
Vesicles w ere prep ared a s described abov e (se e en try (4) in Table S2 and entry (3) in Table S3) and eluted with freshl y prepared 10 mM Hepes, 175mM glucos e, pH 7.5 i n the size exclusion chromatograph y. For the measurements, an approp riate volume o f the liposome stock solutions was diluted to 2m L in a 10× 10 mm PS cuvette wi th 10 mM Hep es bu ffer and 175 mM glucos e at pH 7.5 to afford 12.5µM POPC ⊃CX4/LCG-LUVs and 12.5 µM POPC⊃CF-LUVs (25 µM POPC total). The cuvette was placed into a thermostatted fluorimeter sample holder at 25.0 °C and gentl y stirred at 300 rpm. The fluorescence intensity w as simultaneous l y r eco rded in the CF chann el ( λ exc = 525 nm, λ em = 545 nm) and in the LCG channel ( λ exc = 369 nm, λ em = 475 nm) with an ex citation slit width of 5 nm and an emission slit width of 5 n m during addition of 20 µL peptide stock solution of varying concentrations at 60 s and 20 µL of a calibration

SMILES | EC50 | membrane activity in the CX4/LCG channel compared with the CF channel
CC[C@H](C)[C@H](NC(=O)[C@H](CCCCN)NC(=O)[C@@H](NC(=O)[C@@H](N)CCC(N)=O)[C@@H](C)CC)C(=O)N[C@@H](Cc1c[nH]c2ccccc12)C(=O)N[C@@H](Cc1ccccc1)C(=O)N[C@@H](CCC(N)=O)C(=O)N[C@@H](CC(N)=O)C(=O)N[C@@H](CCCNC(=N)N)C(=O)N[C@@H](CCCNC(=N)N)C(=O)N[C@@H](CCSC)C(=O)N[C@@H](CCCCN)C(=O)N[C@@H](Cc1c[nH]c2ccccc12)C(=O)N[C@@H](CCCCN)C(=O)N[C@@H](CCCCN)C(=O)O (H-QIKIWFQNRRMKWKK-OH) | 28 ± 2 µM | significantly higher
CC(C)C[C@H](NC(=O)[C@H](CC(C)C)NC(=O)[C@H](CCCNC(=N)N)NC(=O)[C@@H](N)CC(C)C)C(=O)N[C@@H](CCCNC(=N)N)C(=O)N[C@@H](Cc1c[nH]c2ccccc12)C(N)=O [LRLLRW] (H-LRLLRW-NH2) | 9 ± 0.9 µM | significantly higher
CC(C)[C@H](NC(=O)[C@H](CCCCN)NC(=O)[C@H](CCCNC(=N)N)NC(=O)[C@H](CCCCN)NC(=O)[C@H](CCCCN)NC(=O)[C@H](CCCCN)NC(=O)[C@@H]1CCCN1C(=O)[C@H](CCC(N)=O)NC(=O)[C@H](CO)NC(=O)[C@H](Cc1c[nH]c2ccccc12)NC(=O)[C@H](CC(=O)O)NC(=O)[C@@H](NC(=O)[C@H](Cc1c[nH]c2ccccc12)NC(=O)[C@H](Cc1c[nH]c2ccccc12)NC(=O)[C@@H](NC(=O)[C@H](CC(=O)O)NC(=O)[C@H](Cc1c[nH]c2ccccc12)NC(=O)[C@H](Cc1c[nH]c2ccccc12)NC(=O)[C@@H](NC(=O)[C@H](CC(=O)O)NC(=O)[C@@H](N)CCCCN)[C@@H](C)O)[C@@H](C)O)[C@@H](C)O)C(=O)O [Pep‐1] (H-KDTWWDTWWTDWSQPKKKRKV-OH) | 22 ± 16 µM | significantly higher
CC[C@H](C)[C@H](NC(=O)[C@H](CCCCN)NC(=O)[C@H](CCCCN)NC(=O)[C@H](C)NC(=O)[C@H](CC(C)C)NC(=O)[C@H](C)NC(=O)[C@H](C)NC(=O)[C@H](CC(C)C)NC(=O)[C@H](C)NC(=O)[C@H](CCCCN)NC(=O)[C@H](CC(C)C)NC(=O)[C@H](CC(N)=O)NC(=O)[C@@H](NC(=O)[C@H](CCCCN)NC(=O)CNC(=O)[C@H](CC(C)C)NC(=O)[C@H](CC(C)C)NC(=O)[C@H](Cc1ccc(O)cc1)NC(=O)CNC(=O)[C@H](C)N)[C@@H](C)CC)C(=O)N[C@@H](CC(C)C)C(=O)O [TP10] | 0.78 ± 0.09 µM | significantly higher membrane activity with the CF dye efflux assay
